Experimental data: ChEMBL document CHEMBL3885861, “Open TG-GATES”

Species: Rattus norvegicus
Assay: Open TG-GATES - Regimen: Daily Repeat
Assay type: toxicity, organism-based, Sprague-Dawley
Parameters: regimen Daily Repeat, gender Male, age 6 weeks
Conditions: in vivo, po, route gavage; for Bas / Eos / Fbg / Hb / Ht / Lym / MCH / MCHC / MCV / Mono / Neu / PT / Plat / RBC / Ret / WBC / APTT: tissue Blood; for KIDNEY_L / KIDNEY_R / KIDNEY_TOTAL: tissue Kidney; for LIVER: tissue Liver; for ALP / AST / BUN / CRE / Ca / Cl / DBIL / GLC / IP / LDH / Na / PL / RALB / TBIL / TC / TG / TP / gamma-GTP: tissue Plasma
[1] = 30 mg/kg, 72 h, dose level Middle, time 3 day
[2] = 30 mg/kg, […], dose level Middle, time 7 day
[3] = 30 mg/kg, […], dose level Middle, time 14 day
[4] = 30 mg/kg, […], dose level Middle, time 28 day
[5] = 100 mg/kg, 72 h, dose level High, time 3 day

CC(=O)N1CCN(c2ccc(OCC3COC(Cn4ccnc4)(c4ccc(Cl)cc4Cl)O3)cc2)CC1 (stereo unspecified) [KETOCONAZOLE]
Bas [1]: 0%
Eos [1]: 1%
Fbg [1]: 303.8 mg/dL
Hb [1]: 13.4 g/dL
Ht [1]: 39.7%
Lym [1]: 77.4%
MCH [1]: 21.4 pg
MCHC [1]: 33.8%
MCV [1]: 63.3 fL
Mono [1]: 2.4%
Neu [1]: 18.2%
PT [1]: 16.3 s
Plat [1]: 117.1 x10_4/uL
RBC [1]: 627.6 x10_4/ul
Ret [1]: 5.6%
WBC [1]: 101.1 x10_2/uL
KIDNEY_L [1]: 1 g
KIDNEY_R [1]: 1.1 g
KIDNEY_TOTAL [1]: 2.1 g
LIVER [1]: 10.5 g
ALP [1]: 1639 IU/L
AST [1]: 67.4 IU/L
BUN [1]: 17.8 mg/dL
CRE [1]: 0.1 mg/dL
Ca [1]: 10.8 mg/dL
Cl [1]: 106.4 meq/L
DBIL [1]: 0 mg/dL
GLC [1]: 181.8 mg/dL
IP [1]: 6.7 mg/dL
LDH [1]: 236.6 IU/L
Na [1]: 139.8 meq/L
PL [1]: 141.8 mg/dL
RALB [1]: 3.1 g/dL
TBIL [1]: 0.01 mg/dL
TC [1]: 71 mg/dL
TG [1]: 88.6 mg/dL
TP [1]: 5.7 g/dL
gamma-GTP [1]: 1.2 IU/L
TERMINAL_BW [2]: 265.9 g
TERMINAL_BW [3]: 312.9 g
TERMINAL_BW [4]: 360.4 g
APTT [2]: 21.8 s
Bas [2]: 0%
Eos [2]: 1%
Fbg [2]: 321.6 mg/dL
Hb [2]: 13.5 g/dL
Ht [2]: 39.7%
Lym [2]: 75.8%
MCH [2]: 21.2 pg
MCHC [2]: 34%
MCV [2]: 62.4 fL
Mono [2]: 2.4%
PT [2]: 16 s
Plat [2]: 121.4 x10_4/uL
RBC [2]: 636.6 x10_4/ul
Ret [2]: 5.4%
WBC [2]: 103.7 x10_2/uL
APTT [3]: 21.1 s
Bas [3]: 0%
Eos [3]: 0.8%
Fbg [3]: 291.8 mg/dL
Hb [3]: 13.4 g/dL
Ht [3]: 39.6%
Lym [3]: 76%
MCH [3]: 20.5 pg
MCHC [3]: 33.8%
MCV [3]: 60.7 fL
Mono [3]: 2.4%
Neu [3]: 19.2%
PT [3]: 16.2 s
Plat [3]: 126.1 x10_4/uL
RBC [3]: 652.8 x10_4/ul
Ret [3]: 4.9%
WBC [3]: 115.1 x10_2/uL
APTT [4]: 25 s
Bas [4]: 0%
Eos [4]: 1%
Fbg [4]: 286.6 mg/dL
Hb [4]: 15.2 g/dL
Ht [4]: 43.9%
Lym [4]: 76.8%
MCH [4]: 19.6 pg
MCHC [4]: 34.5%
MCV [4]: 56.9 fL
Mono [4]: 1.6%
PT [4]: 16.9 s
Plat [4]: 105.3 x10_4/uL
RBC [4]: 773.4 x10_4/ul
Ret [4]: 2.6%
WBC [4]: 102.4 x10_2/uL
KIDNEY_L [2]: 1.2 g
KIDNEY_R [2]: 1.2 g
KIDNEY_TOTAL [2]: 2.3 g
KIDNEY_L [3]: 1.3 g
KIDNEY_R [3]: 1.3 g
KIDNEY_TOTAL [3]: 2.6 g
KIDNEY_L [4]: 1.3 g
KIDNEY_R [4]: 1.4 g
KIDNEY_TOTAL [4]: 2.7 g
LIVER [2]: 12.2 g
LIVER [3]: 14.4 g
LIVER [4]: 15.1 g
ALP [2]: 1565.4 IU/L
AST [2]: 70.4 IU/L
BUN [2]: 18.2 mg/dL
CRE [2]: 0.1 mg/dL
Ca [2]: 10.6 mg/dL
Cl [2]: 108.2 meq/L
DBIL [2]: 0 mg/dL
GLC [2]: 176.4 mg/dL
IP [2]: 6.9 mg/dL
LDH [2]: 171.8 IU/L
Na [2]: 142 meq/L
PL [2]: 145 mg/dL
RALB [2]: 3 g/dL
TBIL [2]: 0.004 mg/dL
TC [2]: 70.4 mg/dL
TG [2]: 135.4 mg/dL
TP [2]: 5.7 g/dL
gamma-GTP [2]: 1.6 IU/L
ALP [3]: 1247.8 IU/L
AST [3]: 65.4 IU/L
BUN [3]: 18.2 mg/dL
CRE [3]: 0.1 mg/dL
Ca [3]: 10.4 mg/dL
Cl [3]: 106.8 meq/L
DBIL [3]: 0 mg/dL
GLC [3]: 180.8 mg/dL
IP [3]: 6.6 mg/dL
LDH [3]: 194.8 IU/L
Na [3]: 142.2 meq/L
PL [3]: 140 mg/dL
RALB [3]: 3 g/dL
TBIL [3]: 0.004 mg/dL
TC [3]: 68.6 mg/dL
TG [3]: 134 mg/dL
TP [3]: 5.8 g/dL
gamma-GTP [3]: 1 IU/L
ALP [4]: 1104.2 IU/L
AST [4]: 66.8 IU/L
BUN [4]: 18.4 mg/dL
CRE [4]: 0.2 mg/dL
Ca [4]: 10.4 mg/dL
DBIL [4]: 0 mg/dL
GLC [4]: 179 mg/dL
IP [4]: 4.9 mg/dL
LDH [4]: 155.2 IU/L
Na [4]: 142.4 meq/L
PL [4]: 126 mg/dL
RALB [4]: 3.1 g/dL
TBIL [4]: 0.008 mg/dL
TC [4]: 61.6 mg/dL
TP [4]: 6.1 g/dL
gamma-GTP [4]: 1.2 IU/L
TERMINAL_BW [5]: 230.7 g
APTT [5]: 20.5 s
